Consider two compounds from patent US12030896B2, “PIKfyve inhibitors” (Mayo Foundation for Medical Education and Research, priority 2018, dated 2024).

One experiment deals with U251 or RKO cells. Kind of experiment: Cathepsin D western blotting. The experiment is classed as cell-based. As to conditions: 18 hours. As for the experimental part:
Macroautophagy (hereafter “autophagy”) is a process that requires precise fusion of endosomes, autophagosomes, and lysosomes. Lysates from cells treated with Example 1 were prepared and probed by western blotting for LC3-I and LC3-II. Increased levels of LC3-II and increased p62 (sequestesome) were found showing the increased drive to undergo autophagy, in the face of inability to complete the process (i.e. ineffective autophagy). Lysosomes are the final destination of proteins destined for degradation by autophagy, and proteolysis in this organelle depends upon cathepsins among other enzymes.
U251 or RKO cells were treated with Example 1 at the indicated concentrations for 18 hours, and then analyzed by western blotting for cathepsin D and actin (loading control).
U251 or RKO cells were plated onto 10 cm tissue culture dishes and grown in the conditions described previously. When cells were growing in log phase and reached approximately 60% confluency, Example 1 was diluted into the growth media at the indicated concentrations. Cells were incubated at 5% CO2, 37° C. for 18 hr, then washed and harvested as described previously. Cells were pelleted by centrifugation at 180×g, resuspended in 20 mL of 1×PBS pH 7.4, and centrifuged again. […]

The test system of a further experiment is murine lymphoma cells. Kind of experiment: Vacuolization seen by light microscopy. Type of experiment: cell-based. How it is done:
Vacuolization due to treatment with Example 1 compound was extremely rapid, becoming visible by light microscopy within 30 minutes or less.

Experiment [1] relates to Glioblastoma (T98G, U251) or colorectal cancer cell lines (HT29, RKO, HCT116). Description: Killing of glioblastoma and colorectal cancer cell lines by Example 3. The experiment is classed as cell-based. As for the experimental part: Experiments were performed using DMEM-based media for the glioblastoma lines and RMPI-based media for the colorectal lines.
The subject of a further experiment is cells in culture. Description: Vacuolization activity in cells in culture. Type of experiment: cell-based. The source says:
As used herein the term “EC50 (μM)” refers to the μM concentration of a compound that is required for 50% activity in a vacuolization assay.
Example 2 is a biotinylated derivative of the compound of Example 1.

Experiment [2] relates to MPNST cells lines (S462, S462TY, 26T, T265, SNF96.2). Kind of experiment: Cytotoxicity against MPNST cell lines. The following applies: DMEM-based medium. The source says: For this reason, it was hypothesized that tumor cells that have activated RAS would have increased sensitivity to this compound. Malignant peripheral nerve sheath tumors (MPNSTs) arise in the population sporadically, and with very high frequency in patients with NF1 mutation. NF1 is a RAS suppressor, and therefore, tumors arising in the NF1-mutant background, have apriori activation of the RAS signaling pathway.

For orientation: pEC50 means the negative decadic logarithm of the EC50, by convention in mol/L. Higher therefore signals a small EC50.

pEC50: −log10 of the molar value.

Regarding `Cc1ccc(Nc2nc(N/N=C/c3c[nH]c4ccccc34)nc(N3CCOCC3)n2)cc1` [Example 1, (E)-4-(2-((1H-indol-3-yl)methylene)hydrazinyl)-6-morpholino-N-(p-tolyl)-1,3,5-triazin-2-amine], in the experiment on U251 or RKO cells, the mature cleaved cathepsin result was “relative loss” and the “uncleaved precursor cathepsin D” value was “accumulation”. Also, in the experiment with murine lymphoma cells, the “time until vacuolization visible by light microscopy” value was at most 30 min.
Turning to `Cc1ccc(Nc2nc(N/N=C/c3c[nH]c4ccccc34)cc(N3CCOCC3)n2)cc1` [Example 3, (E)-4-(2-((1H-indol-3-yl)methylene)hydrazinyl)-6-morpholino-N-(p-tolyl)pyrimidin-2-amine], in experiment [1], the sensitivity to killing entry was “sensitive to killing”. The pEC50 with cells in culture is 8.40. In experiment [2], the “sensitivity to compound-induced death” value is recorded as “highly sensitive”.
